Results as given in patent US20010053351A1, “Inhibition of GSK-3 beta” (priority 1999, published 2001).

Experiments:
GSK-3 = conditions: cited from earlier work
GSK-3α = GSK-3α (Homo sapiens, UniProt P49840); conditions: significant effects at concentrations of VPA similar to those attained clinically; cited from earlier work
GSK-3β = GSK-3β (Homo sapiens, UniProt P49841); conditions: significant effects at concentrations of VPA similar to those attained clinically; cited from earlier work
GSK-3β−/− cells = test: Cell death / viability (trypan blue) of GSK-3β-/- embryonic fibroblast cell lines; assay type: cell-based, mouse; conditions: anisomycin 0-5 μg/ml, sorbitol 0-1000 mM, daunorubicin 0-1000 ng/ml
From the text: To probe the mechanism by which GSK-3β impacted TNF cytotoxicity, immortalized mouse embryonic fibroblast (MEF) cell lines from two wild-type ([…]), two GSK-3β heterozygous (+/−1 and +/−2) and two GSK-3β homozygous mutant (−/−1 and −/−2) embryos were derived from embryos.
We next examined the sensitivity of the lines to TNF-induced cell death. […] As a reference, TNF receptor-associated factor 2 (TRAF2) homozygous mutant MEFs were used in the same assay.
Viability is expressed normalized to untreated controls. Independently derived GSK-3β^+/+ EF cell clones are indicated by +/+1 and +/+2; GSK-3β^+/− by +/−1 and +/−2; and GSK-3β^−/− by −/−1, and −/−2. […] Cells were uniformly treated with cycloheximide (CHX, 0.25 μg/ml). […] (C) Sensitivity of GSK-3β^−/− EF cells to various apoptotic stimuli. EF cells were stimulated with anisomycin (0-5 μg/ml), sorbitol (0-1000 mM), daunorubicin (0-1000 ng/ml), and γ-irradiation (0-50 Gy). All experiments were repeated at least three times, and the data (as a percentage) is shown as the mean ± standard error.

GSK-3α, sequence (P49840 whole entry, species assumed): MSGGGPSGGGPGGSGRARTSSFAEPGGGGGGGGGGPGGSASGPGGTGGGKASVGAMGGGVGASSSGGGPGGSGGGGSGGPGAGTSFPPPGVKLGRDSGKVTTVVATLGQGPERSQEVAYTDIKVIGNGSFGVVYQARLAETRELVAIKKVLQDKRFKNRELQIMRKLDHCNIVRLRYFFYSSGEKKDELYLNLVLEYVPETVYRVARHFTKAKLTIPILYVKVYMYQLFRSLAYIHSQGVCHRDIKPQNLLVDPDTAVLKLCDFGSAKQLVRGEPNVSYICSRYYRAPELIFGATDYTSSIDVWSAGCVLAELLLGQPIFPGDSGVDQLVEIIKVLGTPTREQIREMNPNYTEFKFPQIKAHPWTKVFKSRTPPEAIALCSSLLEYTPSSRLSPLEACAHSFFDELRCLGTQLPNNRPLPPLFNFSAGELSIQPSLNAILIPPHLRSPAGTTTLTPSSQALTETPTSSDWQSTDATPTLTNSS
GSK-3β, sequence (P49841 whole entry): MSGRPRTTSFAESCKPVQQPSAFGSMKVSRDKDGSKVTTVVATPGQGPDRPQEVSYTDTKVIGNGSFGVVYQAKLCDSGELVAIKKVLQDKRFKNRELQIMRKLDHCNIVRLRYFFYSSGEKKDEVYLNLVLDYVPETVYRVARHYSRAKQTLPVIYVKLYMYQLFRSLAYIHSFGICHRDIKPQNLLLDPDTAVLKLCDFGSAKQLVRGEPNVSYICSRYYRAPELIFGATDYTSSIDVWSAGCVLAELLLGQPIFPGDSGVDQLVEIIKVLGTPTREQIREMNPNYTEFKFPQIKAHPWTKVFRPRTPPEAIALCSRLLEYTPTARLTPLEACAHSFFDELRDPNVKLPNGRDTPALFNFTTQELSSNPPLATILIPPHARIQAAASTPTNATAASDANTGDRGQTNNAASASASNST

CC(C)NCC(O)c1ccc(O)c(O)c1 (stereo not shown) [Isoproterenol]
decrease of GSK-3 activity (GSK-3): approximately 50%

CCCC(CCC)C(=O)O [VPA, Valproic acid]
inhibition of GSK-3α (GSK-3α): inhibits | inhibition of GSK-3β (GSK-3β): inhibits

COc1ccc(C[C@H]2NC[C@H](O)[C@H]2OC(C)=O)cc1 [anisomycin]
susceptibility of GSK-3β-deficient cells to apoptotic stimuli (GSK-3β−/− cells): normal susceptibility

COc1cccc2c1C(=O)c1c(O)c3c(c(O)c1C2=O)C[C@@](O)(C(C)=O)C[C@@H]3O[C@H]1C[C@H](N)[C@H](O)[C@H](C)O1 [daunorubicin]
susceptibility of GSK-3β-deficient cells to apoptotic stimuli (GSK-3β−/− cells): normal susceptibility

OC[C@@H](O)[C@@H](O)[C@H](O)[C@@H](O)CO [sorbitol]
susceptibility of GSK-3β-deficient cells to apoptotic stimuli (GSK-3β−/− cells): normal susceptibility

insulin
decrease of GSK-3 activity (GSK-3): approximately 50%
